Patent publication US20010044437A1, “Methods for reducing uric acid levels” (priority 2000, published 2001)

Test system: serum uric acid
Test: Serum uric acid during 28-day once-daily oral dosing, placebo-controlled study in 48 subjects (Example 34)
Type: in vivo, human
Experimental: In another study, 48 subjects were divided into four groups, A, B, C and D, and administered the noted amount of the compound of Example 3. Each group was composed of 12 subjects of whom 9 received the compound and 3 received placebo. The non-placebo members of group A received 50 mg of compound, administered orally once a day for 28 days as a single 50 mg tablet. The non-placebo members of group B received 200 mg of compound administered orally once a day for 28 days as a single 200 mg tablet. The non-placebo members of group C received 500 mg of compound administered orally once a day for 28 days as two 50 mg tablets and two 200 mg tablets. The non-placebo members of group D received 800 mg of compound administered orally once a day for 28 days as four 200 mg tablets. The 3 placebo members of each group, received an amount of placebo, as a tablet, equivalent to the amount of test compound—50 mg placebo for group A, 200 mg placebo for group B, 500 mg placebo for group C and 800 mg placebo for group D. Each subject received a single dose of either compound or placebo for 28 days. The subjects were confined at the clinical site beginning the day before dose administration until 72 hours after the final dose administration on Day 28 and returned for an outpatient visit on Day 35.
Uric acid levels were measured prior to beginning the study (screening), on the day immediately prior to commencement of the study (day-1), and then as noted in the table. Hours indicates the time since the last dose was administered. For example, Day 7, 0 hour indicates the time the serum uric acid level at the time the dose was administered and Day 7, 2 hour indicates the uric acid level two hours after the adminstration that day. Further, the Day 30, 60 hour level is the serum uric acid level measured 60 hours (on Day 30) after the last dose was administered on Day 28. The uric acid levels are presented in mg/dL as a mean of all subjects in each group.

## O=C(O)Cn1cc(Cc2nc3c(F)c(F)cc(F)c3s2)c2ccccc21 [Example 3, 3-(4,5,7-Trifluorobenzothiazol-2-yl)methyl-indole-N-acetic Acid]
Group B 200 mg orally once a day, Day 7 24 Hour
  Uric Acid Level (mean of all subjects in each group): 2.70 mg/dL
Group B 200 mg orally once a day, Day 14 0 Hour
  Uric Acid Level (mean of all subjects in each group): 2.87 mg/dL
Group C 500 mg orally once a day, Day 1 0 Hour
  Uric Acid Level (mean of all subjects in each group): 5.16 mg/dL
Group C 500 mg orally once a day, Day 1 0.5 Hour
  Uric Acid Level (mean of all subjects in each group): 5.08 mg/dL
Group C 500 mg orally once a day, Day 1 1 Hour
  Uric Acid Level (mean of all subjects in each group): 4.81 mg/dL
Group C 500 mg orally once a day, Day 1 2 Hour
  Uric Acid Level (mean of all subjects in each group): 4.27 mg/dL
Group C 500 mg orally once a day, Day 1 3 Hour
  Uric Acid Level (mean of all subjects in each group): 3.84 mg/dL
Group C 500 mg orally once a day, Day 1 4 Hour
  Uric Acid Level (mean of all subjects in each group): 3.54 mg/dL
Group C 500 mg orally once a day, Day 1 6 Hour
  Uric Acid Level (mean of all subjects in each group): 3.30 mg/dL
Group C 500 mg orally once a day, Day 1 8 Hour
  Uric Acid Level (mean of all subjects in each group): 2.82 mg/dL
Group C 500 mg orally once a day, Day 1 10 Hour
  Uric Acid Level (mean of all subjects in each group): 2.59 mg/dL
Group C 500 mg orally once a day, Day 1 12 Hour
  Uric Acid Level (mean of all subjects in each group): 2.56 mg/dL
Group C 500 mg orally once a day, Day 1 16 Hour
  Uric Acid Level (mean of all subjects in each group): 2.36 mg/dL
Group C 500 mg orally once a day, Day 1 24 Hour
  Uric Acid Level (mean of all subjects in each group): 2.74 mg/dL
Group C 500 mg orally once a day, Day 3
  Uric Acid Level (mean of all subjects in each group): 2.21 mg/dL
Group C 500 mg orally once a day, Day 7 0 Hour
  Uric Acid Level (mean of all subjects in each group): 2.17 mg/dL
Group C 500 mg orally once a day, Day 7 0.5 Hour
  Uric Acid Level (mean of all subjects in each group): 2.21 mg/dL
Group C 500 mg orally once a day, Day 7 1 Hour
  Uric Acid Level (mean of all subjects in each group): 2.16 mg/dL
Group C 500 mg orally once a day, Day 7 2 Hour
  Uric Acid Level (mean of all subjects in each group): 2.04 mg/dL
Group C 500 mg orally once a day, Day 7 3 Hour
  Uric Acid Level (mean of all subjects in each group): 1.90 mg/dL
Group C 500 mg orally once a day, Day 7 4 Hour
  Uric Acid Level (mean of all subjects in each group): 1.88 mg/dL
Group C 500 mg orally once a day, Day 7 6 Hour
  Uric Acid Level (mean of all subjects in each group): 2.19 mg/dL
Group C 500 mg orally once a day, Day 7 8 Hour
  Uric Acid Level (mean of all subjects in each group): 2.10 mg/dL
Group C 500 mg orally once a day, Day 7 10 Hour
  Uric Acid Level (mean of all subjects in each group): 2.08 mg/dL
Group C 500 mg orally once a day, Day 7 12 Hour
  Uric Acid Level (mean of all subjects in each group): 1.92 mg/dL
Group C 500 mg orally once a day, Day 7 16 Hour
  Uric Acid Level (mean of all subjects in each group): 1.74 mg/dL
Group C 500 mg orally once a day, Day 7 24 Hour
  Uric Acid Level (mean of all subjects in each group): 2.23 mg/dL
Group C 500 mg orally once a day, Day-1 (before dosing)
  Uric Acid Level (mean of all subjects in each group): 5.10 mg/dL
Group C 500 mg orally once a day, Screening (before dosing)
  Uric Acid Level (mean of all subjects in each group): 5.28 mg/dL
Group D 800 mg orally once a day, Day 1 0 Hour
  Uric Acid Level (mean of all subjects in each group): 5.64 mg/dL
Group D 800 mg orally once a day, Day 1 0.5 Hour
  Uric Acid Level (mean of all subjects in each group): 5.57 mg/dL
Group D 800 mg orally once a day, Day 1 1 Hour
  Uric Acid Level (mean of all subjects in each group): 5.12 mg/dL
Group D 800 mg orally once a day, Day 1 2 Hour
  Uric Acid Level (mean of all subjects in each group): 4.46 mg/dL
Group D 800 mg orally once a day, Day 1 3 Hour
  Uric Acid Level (mean of all subjects in each group): 3.97 mg/dL
Group D 800 mg orally once a day, Day 1 4 Hour
  Uric Acid Level (mean of all subjects in each group): 3.66 mg/dL
Group D 800 mg orally once a day, Day 1 6 Hour
  Uric Acid Level (mean of all subjects in each group): 3.37 mg/dL
Group D 800 mg orally once a day, Day 1 8 Hour
  Uric Acid Level (mean of all subjects in each group): 2.81 mg/dL
Group D 800 mg orally once a day, Day 1 10 Hour
  Uric Acid Level (mean of all subjects in each group): 2.49 mg/dL
Group D 800 mg orally once a day, Day 1 12 Hour
  Uric Acid Level (mean of all subjects in each group): 2.42 mg/dL
Group D 800 mg orally once a day, Day 1 16 Hour
  Uric Acid Level (mean of all subjects in each group): 2.13 mg/dL
Group D 800 mg orally once a day, Day 1 24 Hour
  Uric Acid Level (mean of all subjects in each group): 2.64 mg/dL
Group D 800 mg orally once a day, Day 3
  Uric Acid Level (mean of all subjects in each group): 2.19 mg/dL
Group D 800 mg orally once a day, Day 7 0 Hour
  Uric Acid Level (mean of all subjects in each group): 2.18 mg/dL
Group D 800 mg orally once a day, Day 7 0.5 Hour
  Uric Acid Level (mean of all subjects in each group): 2.10 mg/dL
Group D 800 mg orally once a day, Day 7 1 Hour
  Uric Acid Level (mean of all subjects in each group): 2.07 mg/dL
Group D 800 mg orally once a day, Day 7 2 Hour
  Uric Acid Level (mean of all subjects in each group): 1.98 mg/dL
Group D 800 mg orally once a day, Day 7 3 Hour
  Uric Acid Level (mean of all subjects in each group): 1.90 mg/dL
Group D 800 mg orally once a day, Day 7 4 Hour
  Uric Acid Level (mean of all subjects in each group): 1.90 mg/dL
Group D 800 mg orally once a day, Day 7 6 Hour
  Uric Acid Level (mean of all subjects in each group): 2.23 mg/dL
Group D 800 mg orally once a day, Day 7 8 Hour
  Uric Acid Level (mean of all subjects in each group): 2.21 mg/dL
Group D 800 mg orally once a day, Day 7 10 Hour
  Uric Acid Level (mean of all subjects in each group): 2.20 mg/dL
Group D 800 mg orally once a day, Day 7 12 Hour
  Uric Acid Level (mean of all subjects in each group): 2.10 mg/dL
Group D 800 mg orally once a day, Day 7 16 Hour
  Uric Acid Level (mean of all subjects in each group): 1.78 mg/dL
Group D 800 mg orally once a day, Day 7 24 Hour
  Uric Acid Level (mean of all subjects in each group): 2.26 mg/dL
Group D 800 mg orally once a day, Day-1 (before dosing)
  Uric Acid Level (mean of all subjects in each group): 5.54 mg/dL
Group D 800 mg orally once a day, Screening (before dosing)
  Uric Acid Level (mean of all subjects in each group): 5.68 mg/dL
